Measured values from article PMC7496091, “Small‐Molecule Inhibitors Targeting Sterol 14α‐Demethylase (CYP51): Synthesis, Molecular Modelling and Evaluation Against Candida albicans” (Chemmedchem, 2020).
Like-named read-outs stand apart in the source and are kept apart here.

Experiments:
C. albicans SC5314 [1] = test: MIC, CLSI M27-S4 broth dilution, strain SC5314; assay type: cell-based, Candida albicans; settings: Candida albicans, SC5314, 48 hours
Description: The susceptibilities of the SC5314 and CA14C. albicans (azole sensitive) strains to all novel azole derivatives (5, 7 and 12) were determined (Table 3) using the standardized CLSI M27‐S4 broth dilution method.28
Susceptibility testing of C. albicans strains. […] Stock solutions of each agent were prepared in DMSO. Further dilutions were made in RPMI‐1640, and the final concentration of DMSO was 1 % (v/v). The final testing concentrations for all compounds ranged from 0.03–16 μg mL^−1.

C. albicans CA14 [2] = test: MIC, CLSI M27-S4 broth dilution, strain CA14; assay type: cell-based, Candida albicans; settings: Candida albicans, CA14, 48 hours
Description: Susceptibility testing of C. albicans strains. […] Stock solutions of each agent were prepared in DMSO. […] The final testing concentrations for all compounds ranged from 0.03–16 μg mL^−1.

CaCYP51 [3] = molecular target: T1, CaCYP51 (Candida albicans, UniProt P10613); test: biochemical; settings: for IC50: 1 μM CaCYP51, lanosterol as substrate, curve-fitted, read-out: CaCYP51 IC50; for Ki: Morrison equation estimates, read-out: Kapp/i from the inhibition profiles with CaCYP51
T1 construct: made in house; host or cells: Escherichia coli
T1 sequence (P10613 whole entry): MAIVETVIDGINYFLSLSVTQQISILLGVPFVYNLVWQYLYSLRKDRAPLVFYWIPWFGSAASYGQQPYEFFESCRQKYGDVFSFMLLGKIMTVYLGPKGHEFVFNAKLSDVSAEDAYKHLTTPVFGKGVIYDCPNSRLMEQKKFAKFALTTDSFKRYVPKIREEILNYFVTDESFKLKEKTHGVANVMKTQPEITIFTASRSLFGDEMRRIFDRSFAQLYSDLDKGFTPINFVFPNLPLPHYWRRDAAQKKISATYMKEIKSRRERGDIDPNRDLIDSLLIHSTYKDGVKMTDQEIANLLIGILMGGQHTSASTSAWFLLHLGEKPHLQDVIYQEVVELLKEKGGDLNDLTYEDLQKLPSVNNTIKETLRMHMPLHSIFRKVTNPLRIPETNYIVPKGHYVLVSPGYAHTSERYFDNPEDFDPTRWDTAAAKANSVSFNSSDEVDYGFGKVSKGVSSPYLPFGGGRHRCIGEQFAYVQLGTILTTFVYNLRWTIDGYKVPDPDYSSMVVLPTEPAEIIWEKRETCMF
Description: […]. […] […]. CYP51 reconstitution assays. IC50 values were determined for individual azole compounds18, 30 using lanosterol as substrate. Azoles were introduced using 2.5 μL of stock solutions in DMSO. CaCYP51 assays contained 1 μM CaCYP51 and 2 μM Homo sapiens cytochrome P450 reductase (HsCPR – UniProtKB accession number P16435) and were incubated for 20 min at 37 °C. HsCYP51 assays contained 0.25 μM Δ60HsCYP51 and 1 μM HsCPR and were incubated for 10 min at 37 °C. Each IC50 experiment was performed in duplicate.

Δ60HsCYP51 [4] = molecular target: T2, Δ60HsCYP51 (Homo sapiens, UniProt Q16850); test: CYP51 reconstitution assay (IC50), Δ60HsCYP51; assay type: biochemical; settings: 0.25 μM Δ60HsCYP51, lanosterol as substrate; read-out: IC50 Δ60HsCYP51 (Hs)
T2 sequence (Q16850 61-509, stated change not applied): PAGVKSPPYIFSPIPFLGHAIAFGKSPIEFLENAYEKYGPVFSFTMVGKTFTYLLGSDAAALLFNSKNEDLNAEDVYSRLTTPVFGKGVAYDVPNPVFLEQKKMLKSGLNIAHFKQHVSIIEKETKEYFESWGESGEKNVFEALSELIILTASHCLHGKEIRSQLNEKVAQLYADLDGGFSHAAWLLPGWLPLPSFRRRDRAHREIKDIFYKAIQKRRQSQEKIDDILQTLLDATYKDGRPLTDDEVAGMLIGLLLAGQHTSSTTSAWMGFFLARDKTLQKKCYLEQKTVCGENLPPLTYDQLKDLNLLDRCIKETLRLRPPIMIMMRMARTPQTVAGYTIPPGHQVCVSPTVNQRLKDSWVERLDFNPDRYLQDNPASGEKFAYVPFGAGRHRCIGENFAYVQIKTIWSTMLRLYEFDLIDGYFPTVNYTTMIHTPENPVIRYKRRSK
T2 sequence (P16435 2-677, stated change not applied, further chain): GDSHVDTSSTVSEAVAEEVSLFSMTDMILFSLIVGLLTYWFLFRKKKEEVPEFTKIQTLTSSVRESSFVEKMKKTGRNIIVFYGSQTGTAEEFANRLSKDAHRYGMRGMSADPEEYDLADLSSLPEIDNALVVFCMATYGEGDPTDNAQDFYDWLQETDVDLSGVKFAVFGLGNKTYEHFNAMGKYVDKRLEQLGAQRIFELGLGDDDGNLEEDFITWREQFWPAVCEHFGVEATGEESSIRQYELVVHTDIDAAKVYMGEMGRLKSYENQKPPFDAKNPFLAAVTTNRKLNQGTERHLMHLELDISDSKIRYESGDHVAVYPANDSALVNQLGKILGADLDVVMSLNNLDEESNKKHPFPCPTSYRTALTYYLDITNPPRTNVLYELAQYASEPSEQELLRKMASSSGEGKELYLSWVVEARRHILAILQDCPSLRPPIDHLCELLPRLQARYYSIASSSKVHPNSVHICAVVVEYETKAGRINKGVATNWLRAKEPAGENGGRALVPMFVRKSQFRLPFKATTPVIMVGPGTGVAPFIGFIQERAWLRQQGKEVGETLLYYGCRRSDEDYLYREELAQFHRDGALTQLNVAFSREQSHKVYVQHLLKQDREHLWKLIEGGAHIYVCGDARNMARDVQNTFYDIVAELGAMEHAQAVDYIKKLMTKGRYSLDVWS
Description: CYP51 reconstitution assays. […] Azoles were introduced using 2.5 μL of stock solutions in DMSO. […] Each IC50 experiment was performed in duplicate.

CaCYP51 [5] = molecular target: T1, CaCYP51; test: biochemical; assay type: binding; settings: 3 μM native CaCYP51, mean of three replicates ± SD; read-out: K d CaCYP51
Text: […]. There were no signs of compound insolubility (visible or rising background absorbance) during the ligand titrations. […] […].
The rearranged Morrison equation34 gave the best fit to the ligand saturation curves against CaCYP51 (Figure 5) indicating the selected compounds bound tightly to the purified CaCYP51 protein in free solution. Likewise the rearranged Morrison equation34 gave the best fit for binding 5 d and 5 f to Δ60HsCYP51, thus indicating tight binding in free solution (Figure 5). […].
Recombinant CYP51 protein studies. […] All azole ligand binding determinations were performed in triplicate, except the binding of compound 12 c with Δ60HsCYP51 which was performed six times. CYP51 protein samples were diluted with 0.1 M Tris⋅HCl (pH 8.1) and 25 % (w/v) glycerol to the required concentration.
(§1) Dissociation constant (K d). The K d for each CYP51‐azole complex was determined by non‐linear regression (Levenberg‐Marquardt algorithm) using a rearrangement of the Morrison equation for tight ligand binding.34 Where ligand binding was weaker, the Michaelis‐Menten equation was used to fit the data (Figure S5). K d values were determined for each of the three replicate titrations per azole compound and then mean K d values and standard deviations calculated.

Δ60HsCYP51 [6] = molecular target: T2, Δ60HsCYP51; test: Azole ligand binding titration (type II difference spectra, Kd), Δ60HsCYP51; settings: for Kd: 3 μM native Δ60HsCYP51, mean ± SD (12 c n=6), read-out: K d Δ60HsCYP51 (Hs); for Type of difference binding spectra with Δ60HsCYP51: titration with Δ60HsCYP51
Description: Recombinant CYP51 protein studies.
as §1

C. albicans CA14 [7] = test: Sterol profile analysis by GC-MS, strain CA14; assay type: cell-based, Candida albicans; settings: CA14, % of total sterols, half the MIC (fluconazole 0.06, 5 d 0.06, 5 f 0.015, 12 c 0.5 μg/mL), 18 h
Description: (§2) Sterols were then extracted and analysed by GC‐MS and sterol profiles (% of the total sterol extracted) were determined (Table 6).
(§3) Sterol profile analysis of C. albicans strains. […] Cells were pelleted and washed with ddH2O and non‐saponifiable lipids were extracted using methanolic KOH as reported previously.41 Samples were dried in a vacuum centrifuge and were derivatised by the addition of 100 μL 90 % BSTFA / 10 % TMCS (Sigma), 200 μL anhydrous pyridine (Sigma) and heating for 2 h at 80 °C. TMS‐derivatised sterols were analysed and identified by using GC/MS (Thermo 1300 GC coupled to a Thermo ISQ mass spectrometer, Thermo Scientific) with reference to retention times and fragmentation spectra for known standards. GC/MS data files were analysed using Xcalibur software (Thermo Scientific) to determine sterol profiles for all isolates and to integrate peak areas.

C. albicans SC5314 [8] = test: Sterol profile analysis by GC-MS, strain SC5314; assay type: cell-based, Candida albicans; settings: SC5314, % of total sterols, half the MIC (fluconazole 0.06, 5 d 0.06, 5 f 0.015, 12 c 0.5 μg/mL), 18 h
Description: as §2, §3

Δ60HsCYP51 [9] = molecular target: T2, Δ60HsCYP51; settings: cited from earlier work; for IC50: read-out: IC50 Δ60HsCYP51 (Hs), 0.4 μM Δ60HsCYP51 ref 21
CaCYP51 [10] = molecular target: T1, CaCYP51; settings: 1 μM CaCYP51 ref 21; read-out: IC50 CaCYP51 (Ca) (converted); cited from earlier work
Δ60HsCYP51 [11] = molecular target: T2, Δ60HsCYP51; settings: read-out: K d Δ60HsCYP51 (Hs); cited from earlier work

SMILES | MIC (C. albicans SC5314 [1]; 80 % reduction in turbidity) [µg/mL] | MIC (C. albicans SC5314 [1]; value in brackets) [µM] | MIC (C. albicans CA14 [2]; 80 % reduction in turbidity) [µg/mL] | MIC (C. albicans CA14 [2]; value in brackets) [µM] | IC50 (CaCYP51 [3]) [nM] | Ki (CaCYP51 [3]) [nM] | IC50 (Δ60HsCYP51 [4]) [nM] | Kd (CaCYP51 [5]) [nM] | Kd (Δ60HsCYP51 [6]) [nM] | Type of difference binding spectra with Δ60HsCYP51 (Δ60HsCYP51 [6]) | Sterol composition: diol (14α‐methyl ergosta‐8,24(28)‐dien‐3,6‐diol) (C. albicans CA14 [7]) [%] | Sterol composition: eburicol (C. albicans CA14 [7]) [%] | Sterol composition: ergosterol (C. albicans CA14 [7]) [%] | Sterol composition: lanosterol (C. albicans CA14 [7]) [%] | Sterol composition: total 14α‐methylated sterols (C. albicans CA14 [7]) [%] | Sterol composition: diol (14α‐methyl ergosta‐8,24(28)‐dien‐3,6‐diol) (C. albicans SC5314 [8]) [%] | Sterol composition: eburicol (C. albicans SC5314 [8]) [%] | Sterol composition: ergosterol (C. albicans SC5314 [8]) [%] | Sterol composition: lanosterol (C. albicans SC5314 [8]) [%] | Sterol composition: total 14α‐methylated sterols (C. albicans SC5314 [8]) [%] | also measured
O=C(NCc1ccc(NS(=O)(=O)c2ccc(Cl)cc2)cc1)C(Cn1cncn1)c1ccccc1 (stereo not drawn) [Compound 12 c, N‐(4‐((4‐chlorophenyl)sulfonamido)benzyl)‐2‐phenyl‐3‐(1H‐1,2,4‐triazol‐1‐yl)propanamide] | 1 | 2.02 | 1 | 2.02 | 330 | 110 | 152000 | 43 ± 18 | 923 ± 509 | type II difference binding spectra | 9.2±1.2 | 22.4±1.1 | 3.5±1.3 | 43.6±1.5 | 93.3 | 7.2±5.2 | 14.0±3.5 | 24.9±5.5 | 34.5±2.9 | 70.6 | melting point: 122 to 124 °C
O[C@@](Cn1cnnn1)(c1ccc(F)cc1F)C(F)(F)c1ccc(-c2ccc(OCC(F)(F)F)cc2)cn1 [oteseconazole] |  |  |  |  |  |  |  |  |  |  |  |  |  |  |  |  |  |  |  |  | Inhibition of Δ60HsCYP51 activity (Δ60HsCYP51 [9]; at concentrations up to 50 μM ref 31): did not inhibit
CCC(C)n1ncn(-c2ccc(N3CCN(c4ccc(OCC5COC(Cn6cncn6)(c6ccc(Cl)cc6Cl)O5)cc4)CC3)cc2)c1=O (stereo not drawn) [itraconazole] |  |  |  |  |  |  |  |  |  |  |  |  |  |  |  |  |  |  |  |  | IC50 (CaCYP51 [10]): 400 nM; IC50 (Δ60HsCYP51 [9]): 70000 nM; Kd (Δ60HsCYP51 [11]): 92 nM
CC(=O)N1CCN(c2ccc(OCC3COC(Cn4ccnc4)(c4ccc(Cl)cc4Cl)O3)cc2)CC1 (stereo not drawn) [ketoconazole] |  |  |  |  |  |  |  |  |  |  |  |  |  |  |  |  |  |  |  |  | IC50 (CaCYP51 [10]): 500 nM; IC50 (Δ60HsCYP51 [9]): 4500 nM

Continued, in another order:

MIC (C. albicans SC5314 [1]; 80 % reduction in turbidity) [µg/mL] | MIC (C. albicans SC5314 [1]; value in brackets) [µM] | MIC (C. albicans CA14 [2]; 80 % reduction in turbidity) [µg/mL] | MIC (C. albicans CA14 [2]; value in brackets) [µM] | IC50 (CaCYP51 [3]) [nM] | Ki (CaCYP51 [3]) [nM] | IC50 (Δ60HsCYP51 [4]) [nM] | Kd (CaCYP51 [5]) [nM] | Kd (Δ60HsCYP51 [6]) [nM] | Type of difference binding spectra with Δ60HsCYP51 (Δ60HsCYP51 [6]) | SMILES | Sterol composition: diol (14α‐methyl ergosta‐8,24(28)‐dien‐3,6‐diol) (C. albicans CA14 [7]) [%] | Sterol composition: eburicol (C. albicans CA14 [7]) [%] | Sterol composition: ergosterol (C. albicans CA14 [7]) [%] | Sterol composition: lanosterol (C. albicans CA14 [7]) [%] | Sterol composition: total 14α‐methylated sterols (C. albicans CA14 [7]) [%] | Sterol composition: diol (14α‐methyl ergosta‐8,24(28)‐dien‐3,6‐diol) (C. albicans SC5314 [8]) [%] | Sterol composition: eburicol (C. albicans SC5314 [8]) [%] | Sterol composition: ergosterol (C. albicans SC5314 [8]) [%] | Sterol composition: lanosterol (C. albicans SC5314 [8]) [%] | Sterol composition: total 14α‐methylated sterols (C. albicans SC5314 [8]) [%] | also measured
< 0.03 | < 0.07 | < 0.03 | < 0.07 | 460 | 200 | 3730 | 62 ± 17 | 74 ± 13 | type II difference binding spectra | O=C(NCc1ccc(Cl)cc1Cl)C(Cn1ccnc1)c1ccc(Cl)cc1 (stereo not drawn) [Compound 5 f, 2‐(4‐Chlorophenyl)‐N‐(2,4‐dichlorobenzyl)‐3‐(1H‐imidazol‐1‐yl)propanamide] | 7.5±4.6 | 26.1±0.1 | 4.3±0.5 | 43.6±1.8 | 77.2 | 11.7±1.4 | 21.0±3.3 | 9.1±5.5 | 38.6±3.6 | 89.3 | melting point: 148 to 150 °C
0.125 | 0.33 | 0.125 | 0.33 | 390 | 160 | 3370 | 17 ± 5 | 45 ± 13 | type II difference binding spectra | O=C(NCc1ccc(Cl)cc1)C(Cn1ccnc1)c1ccc(Cl)cc1 (stereo not drawn) [Compound 5 d, N‐(4‐Chlorobenzyl)‐2‐(4‐chlorophenyl)‐3(1H‐imidazol‐1‐yl)propanamide] | 8.2±6.0 | 26.4±5.0 | 7.8±6.5 | 40.4±2.2 | 90.0 | 17.6±7.1 | 20.5±4.4 | 2.7±2.3 | 41.0±5.5 | 95.8 | melting point: 160 to 162 °C
